Assays:
[1] = cited from earlier work; for abilities to increase uric acid levels: nucleotides compared to nucleosides; for uricosuric effect / uric acid levels in the blood: normal, hyperuricemic and gouty humans; for increasing blood uric acid levels: nucleotides compared with DNA and RNA
[2] = system: allergic encephalomyelitis (EAE); conditions: mice, 500 mg/kg four times a day, started before or after clinical symptoms of EAE; cited from earlier work
[3] = cited from earlier work
[4] = Luminol dependent chemiluminescence activated by directly injected peroxynitrite; type: biochemical; conditions: for inhibition of peroxynitrite-based luminol light: 1000 fold dilution; for relative antioxidant activity among the catechins tested: peroxynitrite or SIN-1 based light
Method: The end product of purine metabolism in humans is uric acid. This substance is an excellent antioxidant that can interact directly with nearby peroxynitrite. Figure 2 is a graph depicting interaction of peroxynitrite and uric acid and the inhibition of peroxynitrite based chemiluminescence. Figure 2 illustrates the oxidative reaction of peroxynitrite an luminol to produce light (chemiluminescence) and the interference with light which is produced by uric acid at a concentration of 10 µM. […] Allantoin is the end product of purine metabolism in animals except for man, great apes and some dalmatian dogs. […] Such an oxidant occurs most likely through peroxynitrite or possibly hypochlorite.
(§1) We studied the effect of Green tea leaf extract on peroxynitrite. This study is based on a simple chemical interaction of peroxynitrite (OONO-) and luminol which produces blue light upon oxidation. […] In addition peroxynitrite itself was used directly with a fast injection-mixing system to ascertain if there might be differences between it and the peroxynitrite generating system (SIN-1) which mimics the natural production of (OONO-). […] Upon the stimulation of inflammation and/or infection, macrophages and neutrophils can be stimulated to produce large amounts of peroxynitrite.
(§2) The antioxidant effect of green tea and some of its constituents against luminol dependent chemiluminesence activated by peroxynitrite. Since peroxynitrite oxidizes luminol to an intermediate that produces light, antioxidants will inhibit this blue light by interfering with the oxidation of the luminol. In addition, we used SIN-1 which produces both superoxide and nitric oxide which combine to produce peroxynitrite. […] The purpose of this study was to measure the antioxidant activity of green tea extract and some of its prominent polyphenols. This is accomplished by using the antioxidants to oppose the oxidation of luminol by peroxynitrite thereby inhibiting the production of blue light.
(§3) Three sydnonimine congeners are known to produce both nitric oxide and superoxide and then combine to produce peroxynitrite (ONOO). […] It was kept on ice and maintained its activity for several hours of the experiment. Peroxynitrite (approx 50 mM) was diluted 1/1000 with water. The original solution is supplied in 0.3M NaOH and this stabilizes the compound. Once diluted it must be kept on ice and used quickly, especially after dilution. When the diluted OONO- is injected into the PBS buffer at pH=7.4. […] However, the slower reaction with SIN-1 gives an opportunity to dissect the reaction into its component parts, since rapid reaction and injection/mixing are not so crucial.
(§4) The luminol was obtained from Sigma Chemical Company, St. Louis, Mo. It was dissolved first in one ml DMSO and then diluted to produce a stock solution (10^-4M) in 0.1 M Phosphate buffered saline at a pH of 7.4.
(§5) The luminometer tube was placed in a Berthold model LB9505C tube-6 channel luminometer with the temperature control set at 37°C and the light reaction was measured for 20 minutes. Peroxynitrite reacts with luminol directly and was injected using an essentially pressure-independent injection device, which injects 1/50 of it's total volume (2500 µm) of a gas tight syringe, made by the Hamilton Co. (pat. # 3161323) in Whittier, CA, to produce a blue light at 425 nm, which corresponds to the most sensitive detection range of the photomultipliers for this luminometer. The injection device was linked to a gastight 2500 microliter syringe with a fixed needle of 5.2 cm. This length of needle was necessary to penetrate the septum of the ports of the 6 channel Berthold Luminometer and to extend into the tube far enough to produce reproducible mixing necessary because of the short half-life of peroxynitrite. In Fig. 7, repetitive injections of peroxynitrite are shown giving the light generated over a one minute time period which was acquired, plotted and integrated with an IBM clone computer running KINB software. […]

[5] = administered in large amounts (95 mg/kg); oxidized to 2,8 dihydroxyadenine; cited from earlier work
[6] = Luminol dependent chemiluminescence activated by SIN-1 (peroxynitrite generator); type: biochemical
Excerpt: as §1, §2, §3, §4
Green tea powdered extract was purchased from Pharmanex, Simi Valley, California. 250mg was dissolved in 10ml of phosphate buffered saline (PBS) with pH of 7.4 and used as a stock solution. Dilutions were made using PBS and samples from this original stock solution were diluted every ten fold from one to a million (six samples).
A control solution was also used to provide a reference to the light stimulation produced by the combination of SIN-1 and luminol.
as §5, with “software. In the case of SIN-1, the ingredients were mixed prior to assay, with SIN-1 added fast. The assay is reported as counts per minute integrated over the 20 minute time period.” for “software.”

[7] = 1:1000 dilution (stock 0.45 mMolar)
[8] = 1:100 dilution from stock at 0.45 mMolar

Which “abilities to increase uric acid levels” value [1] does the source give for OC[C@H]1O[C@@H](n2cnc3c(O)ncnc32)[C@H](O)[C@@H]1O [inosine] here?
The value was “equivalent”.

Which results are given for O=c1[nH]c(=O)c2[nH]c(=O)[nH]c2[nH]1 [uric acid]?
survival [2]: long time survival; solubility in water [3]: highly insoluble in water; inhibition of the oxidative reaction of peroxynitrite and luminol (chemiluminescence) ([4]; uric acid 10 µM, peroxynitrite 10 µM): about 99%

Which toxicity [5] does the source give for Nc1ncnc2nc[nH]c12 [adenine] here?
Its toxicity is “can crystallize to form kidney stones”.

And the “uricosuric effect / uric acid levels in the blood” value [1]?
Its value is “raised uric acid levels in the blood”.

For (-) epicatechin gallate, which “inhibition of SIN-1 activated luminol light” value [6, 7] is on record?
The value was “about 50%”.

What about the “inhibition of SIN-1 activated luminol light” value ([6]; 1:1000 dilution (stock 0.45 mMolar), listed as epicatechin gallate (-)) of the same compound?
Its value is 60%.

And the “inhibition of light, peroxynitrite as activator of luminol light” value ([4]; 1:10 dilution)?
The value was 100%.

And the “inhibition of peroxynitrite-based luminol light” value [4]?
The value was “about 50%”.

What about the “inhibition of light production, peroxynitrite as activator of luminol light” value ([4]; consecutive 10 fold dilution after 1:10) of the same compound?
Its value is “about 25%”.

What about the “relative antioxidant activity among the catechins tested” value [4] of the same compound?
Its value is “second most active antioxidant”.

For Nc1nc2nc[nH]c2c(=O)[nH]1 [guanine], which “uricosuric effect / uric acid levels in the blood” value [1] is on record?
Its value is “ineffective”.

Which “inhibition of SIN-1 activated luminol light” value [6, 7] does the source give for Oc1cc(O)c2c(c1)OC(c1ccc(O)c(O)c1)C(O)C2 (racemic) [racemic catechin, (±) catechin] here?
The value was 50%.

And the “inhibition of SIN-1 activated luminol light” value ([6]; 1:1000 dilution (stock 0.45 mMolar), listed as Racemic catechin)?
Its value is “about 50%”.

What about the “inhibition of SIN-1 activated luminol light” value ([6]; 10 fold dilutions after 1:1000) of the same compound?
The value was “little inhibition”.

And the “inhibition of peroxynitrite-based light” value ([4]; 1:10,000 dilution)?
The value was 50%.

And the “inhibition of peroxynitrite-based light” value ([4]; 1:10,000 dilution, listed as Racemic catechin)?
Its value is “about 50%”.

What about the “inhibition of peroxynitrite-based light” value ([4]; 1:100,000 dilution) of the same compound?
Its value is 50%.

What about the “inhibition of peroxynitrite-based luminol light” value [4] of the same compound?
The value was “about 50%”.

What about the “relative antioxidant activity among the catechins tested” value [4] of the same compound?
Its value is “very active”.

With (-) epigallocatechin gallate as the compound, how does the “inhibition of SIN-1 activated luminol light” value ([6]; 1:10 dilution) read?
The value was 100%.

What about the “effect on light from SIN-1” value [6, 8] of the same compound?
Its value is “stimulation of light”.

And the “inhibition of SIN-1 activated luminol light” value ([6]; full strength)?
Its value is 100%.

And the “effect on SIN-1 activated luminol light” value ([6]; further dilution beyond 1:10)?
The value was “stimulate production of light”.

And the “effect on light from peroxynitrite” value [4, 8]?
Its value is “stimulation of light”.

And the “pattern with peroxynitrite based light compared with SIN-1 activated light” value ([4]; full strength and 10 fold dilutions)?
The value was “same pattern of behavior”.

And the “relative antioxidant activity among the catechins tested” value [4]?
Its value is “weakest antioxidant tested”.

Which “uricosuric effect / uric acid levels in the blood” value [1] does the source give for O=c1[nH]c(=O)c2[nH]cnc2[nH]1 [xanthine] here?
The value was “ineffective”.

With Nc1ncnc2c1ncn2[C@@H]1O[C@H](COP(=O)(O)O)[C@@H](O)[C@H]1O [AMP] as the compound, how does the “uricosuric effect / uric acid levels in the blood” value [1] read?
Its value is “raised uric acid levels in the blood”.

What about the “abilities to increase uric acid levels” value [1] of the same compound?
Its value is “equivalent”.

What about the “increasing blood uric acid levels” value [1] of the same compound?
The value was “more effective than DNA and RNA”.

For O=c1[nH]cnc2nc[nH]c12 [hypoxanthine], which “uricosuric effect / uric acid levels in the blood” value [1] is on record?
Its value is “raised uric acid levels in the blood”.

What about the “effectiveness as precursor of uric acid” value ([1]; overall, of AMP, GMP and hypoxanthine) of the same compound?
The value was “most effective precursor of uric acid”.

Which “abilities to increase uric acid levels” value [1] does the source give for Nc1nc2c(ncn2[C@@H]2O[C@H](CO)[C@@H](O)[C@H]2O)c(=O)[nH]1 [guanosine] here?
The value was “equivalent”.

With Nc1nc2c(ncn2[C@@H]2O[C@H](COP(=O)(O)O)[C@@H](O)[C@H]2O)c(=O)[nH]1 [GMP] as the compound, how does the “uricosuric effect / uric acid levels in the blood” value [1] read?
The value was “raised uric acid levels in the blood”.

What about the “abilities to increase uric acid levels” value [1] of the same compound?
The value was “equivalent”.

And the “increasing blood uric acid levels” value [1]?
Its value is “more effective than DNA and RNA”.

Reference: EP1100507B1, “USE OF A COMBINATION COMPRISING A PRECURSOR OF URIC ACID AND ANTIOXIDANT FOR THE TREATMENT OF NEURODEGENERATIVE DESEASES” (Sacks, Meir S., priority 1998, dated 2000)
